≈ marks a conversion by molar mass, not a printed value.
Assays:
Assay in all cases: In vitro antibacterial evaluation: minimum inhibitory concentration (MIC), broth dilution method
Type in all cases: cell-based
Enterococcus sp. = conditions: for MIC Enterococcus faecalis (ATCC 29212): strain ATCC 29212; for MIC Enterococcus faecalis (GC 4552): strain GC 4552
Procedure: (§1) The minimum inhibitory concentration (MIC), the lowest concentration of the antibiotic which inhibits growth of the test organism, is determined by the broth dilution method using Muller-Hinton II […] (Baltimore Biological Laboratories) following the recommendations of the National Committee for Clinical Laboratory Standards [Methods for dilution antimicrobial susceptibility tests for bacteria that grow aerobically, approved standard M7-A2, National Committee for Clinical Laboratory Standards, Villanova, Pa].
(§2) An inoculum level of 5×10^5 CFU/mL, and a range of antibiotic concentrations (64-0.06 μg/mL) is used. […] The test organisms include a spectrum of Gram-positive bacteria comprised of Staphylococcus sp., Streptococcus sp. and Enterococcus sp. These organisms include recent clinical isolates that are resistant to methicillin, penicillin and/or vancomycin.

Escherichia coli = test system: Escherichia coli
Procedure: as §1, §2

Staphylococcus sp. = conditions: for MIC Coagulase Negative Staphylococcus (GC 4537): strain GC 4537; for MIC Coagulase Negative Staphylococcus (GC 4538): strain GC 4538; for MIC Coagulase Negative Staphylococcus (GC 4547): strain GC 4547
Procedure: as §1, §2

[1] = broth dilution, 18 hours at 35° C.
[2] = strain SMITH GC 4536, broth dilution, 18 hours at 35° C.
[3] = broth dilution, 5×10^5 CFU/mL, 18 hours at 35° C.
[4] = 5×10^5 CFU/mL, 18 hours at 35° C.

MIC Enterococcus faecalis (GC 4552) (Enterococcus sp.) [µg/mL] | MIC Escherichia coli (GC 4559) (Escherichia coli; strain GC 4559) [µg/mL] | MIC Coagulase Negative Staphylococcus (GC 4537) (Staphylococcus sp.) [µg/mL] | MIC Coagulase Negative Staphylococcus (GC 4537) (Staphylococcus sp.; [1]) [µg/mL] | MIC Coagulase Negative Staphylococcus (GC 4538) (Staphylococcus sp.) [µg/mL] | MIC Coagulase Negative Staphylococcus (GC 4538) (Staphylococcus sp.; [1]) [µg/mL] | MIC Coagulase Negative Staphylococcus (GC 4547) (Staphylococcus sp.) [µg/mL] | MIC Coagulase Negative Staphylococcus (GC 4547) (Staphylococcus sp.; [1]) [µg/mL] | MIC Staphylococcus aureus-SMITH (GC 4536) (Staphylococcus sp.; [2]) [µg/mL] | MIC Enterococccus faecalis (ATCC 29212) (Enterococcus sp.; [3]) [µg/mL] | MIC Enterococccus faecalis (GC 4552) (Enterococcus sp.; [3]) [µg/mL] | MIC Enterococcus faecalis (GC 2242) (Enterococcus sp.; [3]) [µg/mL] | MIC Escherichia coli (GC 4560) (Escherichia coli; [4]) [µg/mL] | Compound | MIC Enterococcus faecalis (ATCC 29212) (Enterococcus sp.) [µg/mL] | MIC Enterococcus faecalis (GC 2242) (Enterococcus sp.; strain GC 2242) [µg/mL] | MIC Escherichia coli (GC 4560) (Escherichia coli; strain GC 4560) [µg/mL] | MIC Staphylococcus aureus (ATCC 29213) (Staphylococcus sp.; [1]) [µg/mL] | MIC Staphylococcus aureus (GC 1131) (Staphylococcus sp.; [1]) [µg/mL] | MIC Staphylococcus aureus (GC 4535) (Staphylococcus sp.; [1]) [µg/mL] | MIC Staphylococcus aureus SMITH (GC 4536) (Staphylococcus sp.; [1]) [µg/mL] | further results
>64 | >64 | >64 | >64 | >64 | >64 | >64 | >64 | >64 | – | – | – | – | CCCCCCC(=O)OCC1OC(N2C(=N)NCC2C(O)C2NC(=O)C(C(O)C3CNC(=N)N3)NC(=O)C(Cc3ccc(OC4OC(CO)C(OC5OC(CO)C(O)C(O)C5O)C(O)C4O)cc3)NC(=O)C(C(C)c3ccccc3)NC(=O)CNC(=O)C(CO)NC2=O)C(O)C(O)C1O (stereo not drawn) [Example 97] | >64 | >64 | 2 (≈ 1.42 µM) | >64 | >64 | >64 | >64 | –
– | – | 2 (≈ 1.41 µM) | 2 (≈ 1.41 µM) | 1 (≈ 0.704 µM) | 1 (≈ 0.704 µM) | 1 (≈ 0.704 µM) | 1 (≈ 0.704 µM) | 2 (≈ 1.41 µM) | 8 (≈ 5.64 µM) | 8 (≈ 5.64 µM) | 8 (≈ 5.64 µM) | 0.5 (≈ 0.352 µM) | CC(c1ccccc1)C1NC(=O)CNC(=O)C(CO)NC(=O)C(C(O)C2CNC(=N)N2C2OC(CO)C(O)C(O)C2O)NC(=O)C(C(O)C2CNC(=N)N2)NC(=O)C(Cc2ccc(OC3OC(COC(=O)CCC4CCCC4)C(OC4OC(CO)C(O)C(O)C4O)C(O)C3O)cc2)NC1=O (stereo not drawn) [Example 100b, Cyclo[glycyl-β-methylphenylalanyl-O-[6-O-(3-cyclopentylpropanoyl)-4-O-hexopyranosyl-hexopyranosyl]tyrosyl-3-(2-iminoimidazolidin-4-yl)seryl-3-(3-hexopyranosyl-2-iminoimidazolidin-4-yl)serylseryl]] | – | – | – | – | – | – | – | MIC Staphylococcus aureus (ATCC 29213) (Staphylococcus sp.; strain ATCC 29213): 2 µg/mL (≈ 1.41 µM); MIC Staphylococcus aureus (GC 1131) (Staphylococcus sp.; strain GC 1131): 2 µg/mL (≈ 1.41 µM); MIC Staphylococcus aureus (GC 4535) (Staphylococcus sp.; strain GC 4535): 2 µg/mL (≈ 1.41 µM); MIC Staphylococcus aureus-SMITH (GC 4536) (Staphylococcus sp.; strain GC 4536): 2 µg/mL (≈ 1.41 µM)
– | – | 1 (≈ 0.704 µM) | 1 (≈ 0.704 µM) | 1 (≈ 0.704 µM) | 1 (≈ 0.704 µM) | 1 (≈ 0.704 µM) | 1 (≈ 0.704 µM) | 1 (≈ 0.704 µM) | 4 (≈ 2.82 µM) | 4 (≈ 2.82 µM) | 2 (≈ 1.41 µM) | 0.5 (≈ 0.352 µM) | CC(c1ccccc1)C1NC(=O)CNC(=O)C(CO)NC(=O)C(C(O)C2CNC(=N)N2C2OC(CO)C(O)C(O)C2O)NC(=O)C(C(O)C2CNC(=N)N2)NC(=O)C(Cc2ccc(OC3OC(CO)C(OC4OC(COC(=O)CCC5CCCC5)C(O)C(O)C4O)C(O)C3O)cc2)NC1=O (stereo not drawn) [Example 100c, Cyclo[glycyl-β-methylphenylalanyl-O-[4-O-[6-O-(3-cyclopentylpropanoyl)hexopyranosyl]-hexopyranosyl]tyrosyl-3-(2-iminoimidazolidin-4-yl)seryl-3-(3-hexopyranosyl-2-iminoimidazolidin-4-yl)serylseryl]] | – | – | – | – | – | – | – | MIC Escherichia coli (GC 4559) (Escherichia coli; [4]): 32 µg/mL (≈ 22.5 µM); MIC Staphylococcus aureus (ATCC 29213) (Staphylococcus sp.; strain ATCC 29213): 1 µg/mL (≈ 0.704 µM); MIC Staphylococcus aureus (GC 1131) (Staphylococcus sp.; strain GC 1131): 1 µg/mL (≈ 0.704 µM); MIC Staphylococcus aureus (GC 4535) (Staphylococcus sp.; strain GC 4535): 1 µg/mL (≈ 0.704 µM); MIC Staphylococcus aureus-SMITH (GC 4536) (Staphylococcus sp.; strain GC 4536): 1 µg/mL (≈ 0.704 µM)

Continued, compound first:

Compound | MIC Enterococcus faecalis (GC 4552) (Enterococcus sp.) [µg/mL] | MIC Escherichia coli (GC 4559) (Escherichia coli; strain GC 4559) [µg/mL] | MIC Coagulase Negative Staphylococcus (GC 4537) (Staphylococcus sp.) [µg/mL] | MIC Coagulase Negative Staphylococcus (GC 4537) (Staphylococcus sp.; [1]) [µg/mL] | MIC Coagulase Negative Staphylococcus (GC 4538) (Staphylococcus sp.) [µg/mL] | MIC Coagulase Negative Staphylococcus (GC 4538) (Staphylococcus sp.; [1]) [µg/mL] | MIC Coagulase Negative Staphylococcus (GC 4547) (Staphylococcus sp.) [µg/mL] | MIC Coagulase Negative Staphylococcus (GC 4547) (Staphylococcus sp.; [1]) [µg/mL] | MIC Staphylococcus aureus-SMITH (GC 4536) (Staphylococcus sp.; [2]) [µg/mL] | MIC Enterococccus faecalis (ATCC 29212) (Enterococcus sp.; [3]) [µg/mL] | MIC Enterococccus faecalis (GC 4552) (Enterococcus sp.; [3]) [µg/mL] | MIC Enterococcus faecalis (GC 2242) (Enterococcus sp.; [3]) [µg/mL] | MIC Escherichia coli (GC 4560) (Escherichia coli; [4]) [µg/mL] | MIC Enterococcus faecalis (ATCC 29212) (Enterococcus sp.) [µg/mL] | MIC Enterococcus faecalis (GC 2242) (Enterococcus sp.; strain GC 2242) [µg/mL] | MIC Escherichia coli (GC 4560) (Escherichia coli; strain GC 4560) [µg/mL] | MIC Staphylococcus aureus (ATCC 29213) (Staphylococcus sp.; [1]) [µg/mL] | MIC Staphylococcus aureus (GC 1131) (Staphylococcus sp.; [1]) [µg/mL] | MIC Staphylococcus aureus (GC 4535) (Staphylococcus sp.; [1]) [µg/mL] | MIC Staphylococcus aureus SMITH (GC 4536) (Staphylococcus sp.; [1]) [µg/mL] | further results
CCCCCCC(=O)OCC1OC(Oc2ccc(CC3NC(=O)C(C(C)c4ccccc4)NC(=O)CNC(=O)C(CO)NC(=O)C(C(O)C4CNC(=N)N4C4OC(CO)C(O)C(O)C4O)NC(=O)C(C(O)C4CNC(=N)N4)NC3=O)cc2)C(O)C(O)C1OC1OC(CO)C(O)C(O)C1O (stereo not drawn) [Example 97a, Cyclo[glycyl-β-methylphenylalanyl-O-(6-O-heptanoyl-4-O-hexopyranosylhexopyranosyl)-tyrosyl-3-(2-iminoimidazolidin-4-yl)seryl-3-(3-hexopyranosyl-2-iminoimidazolidin-4-yl)-serylseryl]] | 16 (≈ 11.4 µM) | >64 | 4 (≈ 2.84 µM) | 4 (≈ 2.84 µM) | 2 (≈ 1.42 µM) | 2 (≈ 1.42 µM) | 2 (≈ 1.42 µM) | 2 (≈ 1.42 µM) | 0.5 (≈ 0.355 µM) | – | – | – | – | 8 (≈ 5.68 µM) | 4 (≈ 2.84 µM) | 1 (≈ 0.711 µM) | 1 (≈ 0.711 µM) | 2 (≈ 1.42 µM) | 2 (≈ 1.42 µM) | 0.5 (≈ 0.355 µM) | –
CC(c1ccccc1)C1NC(=O)CNC(=O)C(CO)NC(=O)C(C(O)C2CNC(=N)N2C2OC(CO)C(O)C(O)C2O)NC(=O)C(C(O)C2CNC(=N)N2)NC(=O)C(Cc2ccc(OC3OC(COC(=O)Cc4ccccc4)C(OC4OC(CO)C(O)C(O)C4O)C(O)C3O)cc2)NC1=O (stereo not drawn) [Example 98b] | – | – | 16 (≈ 11.3 µM) | 16 (≈ 11.3 µM) | 8 (≈ 5.66 µM) | 8 (≈ 5.66 µM) | 8 (≈ 5.66 µM) | 8 (≈ 5.66 µM) | 8 (≈ 5.66 µM) | – | – | – | – | 64 (≈ 45.3 µM) | 64 (≈ 45.3 µM) | 2 (≈ 1.42 µM) | 16 (≈ 11.3 µM) | 16 (≈ 11.3 µM) | 16 (≈ 11.3 µM) | 8 (≈ 5.66 µM) | –
CC(c1ccccc1)C1NC(=O)CNC(=O)C(CO)NC(=O)C(C(O)C2CNC(=N)N2C2OC(CO)C(O)C(O)C2O)NC(=O)C(C(O)C2CNC(=N)N2)NC(=O)C(Cc2ccc(OC3OC(CO)C(OC4OC(COC(=O)Cc5ccccc5)C(O)C(O)C4O)C(O)C3O)cc2)NC1=O (stereo not drawn) [Example 98c, Cyclo[glycyl-β-methylphenylalanyl-O-[4-O-[6-O-(phenylacetyl)hexopyranosyl]hexopyranosyl]-tyrosyl-3-(2-iminoimidazolidin-4-yl)seryl-3-(3-hexopyranosyl-2-iminoimidazolidin-4-yl)-serylseryl]] | 16 (≈ 11.3 µM) | 64 (≈ 45.3 µM) | 2 (≈ 1.42 µM) | 2 (≈ 1.42 µM) | 1 (≈ 0.708 µM) | 1 (≈ 0.708 µM) | 1 (≈ 0.708 µM) | 1 (≈ 0.708 µM) | 2 (≈ 1.42 µM) | – | – | – | – | 16 (≈ 11.3 µM) | 8 (≈ 5.66 µM) | 0.5 (≈ 0.354 µM) | 2 (≈ 1.42 µM) | 2 (≈ 1.42 µM) | 4 (≈ 2.83 µM) | 2 (≈ 1.42 µM) | –

Reference: patent publication US8247211B2, “Glycopeptide antibiotics” (American Cyanamid Company, priority 2001, dated 2012)
